Measured values: patent publication US12011423B2, “S-alkylisothiouronium derivatives for treating uterine hypercontractility disorders” (FORAVISET LTD., priority 2007, dated 2024)

Key:
women with uterine myoma [1] = conditions: unpublished studies; cited from earlier work
women with uterine myoma [2] = experiment: S-ethylisothiouronium bromide in abnormal uterine hemorrhages and pelvic pains associated with uterine myoma (unpublished studies) and comparison; type: in vivo; conditions: found to be preferable over S-ethylisothiouronium bromide
[3] = system: women suffering from primary or secondary dysmenorrhea; experiment: Effect of vaginal suppositories on pain in primary or secondary dysmenorrhea (Example 3); type: in vivo
Method: Vaginal suppositories containing S-ethylisothiouronium diethylphosphate (100 mg each/day) were applied to 28 women suffering from primary or secondary dysmenorrhea.

[4] = system: women showing abnormal uterine bleeding; experiment: Effect of vaginal suppositories on abnormal uterine bleeding in women (Example 1); type: in vivo
Method: Thirty-six women showing abnormal uterine bleeding were enrolled to this study. Each woman received one suppository of S-ethylisothiouronium diethylphosphate (100 mg of S-ethylisothiouronium diethylphosphate in 2 gr of Suppocire®, a suppository base obtained by esterification of hydrogenated palm oil and hydrogenated palm kelnel oil) per day, applied in the posterior vaginal fornix.

Wistar male rats = experiment: Tail-flick test, pain under thermal stimulation (Example 2); type: in vivo
Method: The study was carried out on Wistar male rats (body weight of 210 g). The experiment was carried out on 30 rats divided into 3 groups of 10 animals each. The presence of pain was determined using the Tail-flick test, This method is based on monitoring the reaction time for the typical tail-withdrawal reflex as a result of thermal stimulation. First, the temperature (° C.) at which rat tails was withdrawn was determined, thus identifying the thermal level that caused pain. One hour later, the rats were injected intraperitoneally with S-ethylisothiouronium diethylphosphate in 0.9% NaCl. One group (10 rats) was injected with 5 mg/kg body weigh of S-ethylisothiouronium diethylphosphate, whilst the second and third groups (10 rats each) were injected with 10 and 20 mg/kg body weight, respectively.

[5] = system: women patients having primary dysmenorrhea; experiment: Effect on pelvic pains in women having primary dysmenorrhea (Example 4, group II); type: in vivo; conditions: intravaginal administration
Method: Sixty-ninewomen having symptomatic uterine myoma or primary dysmenorrhea were enrolled to this study. The women were treated with vaginal suppositories of S-ethylisothiouronium diethylphosphate (100 mg of S-ethylisothiouronium diethylphosphate in 2 gr of Suppocire® per day, applied in the posterior vaginal fornix).
In addition, the effect of S-ethylisothiouronium diethylphosphate on pelvic pains was evaluated in 38 women patients having primary dysmenorrhea (group II). The average age of the patients was 24.8±4.1 years. All the 38 patients had experienced at least 6 painful menstrual cycles prior to their inclusion in the study. The duration of the menstrual cycle in all cases was normal, i.e., of 21-35 days, with the menstruation lasting 3-7 days. Further, none of the patients was treated with oral contraceptives for at least 6 months before enrollment. The patients were eligible for the study following the confirmation of normal hematological and biochemical indexes and exclusion of antecedent gynecological surgical procedures.
To evaluate the intensity of pain, the patients reported the pain intensity at the beginning of the study, during, and at the termination of the medical management using one of the following terms: absence of pain; greatly diminished pain; slightly diminished pain; similar pain as of the previous treatment; and intensification of pain. […]

[6] = 24 hours after beginning of treatment, 100 mg/day vaginal suppository, 28 women

| Compound | duration of effect and side effects (women with uterine myoma [1]) | effect on abnormal uterine hemorrhages and pelvic pains (women with uterine myoma [1]) | comparison with S-ethylisothiouronium bromide (women with uterine myoma [2]) | complete disappearance of the pain [3, 6] | significant decrease in the intensity of the pain [3, 6] | eradication of pain ([3]; 48 hours after beginning of treatment, after a second suppository) | complete disappearance of pathological uterine bleeding ([4]; after six suppositories (100 mg each), intravaginally, one per day, 36 women) | patients reporting menstrual cycles with a normal duration and interval ([4]; over the course of three consecutive months) | intensity of bleeding moderately reduced, full haemostatic effect not reached ([4]; patients, vaginal suppositories 100 mg per day) | Haemostasis obtained, on average, time from the start of treatment ([4]; vaginal suppositories 100 mg per day) | increase of thermal level for tail withdrawal (Wistar male rats; 5 mg/kg intraperitoneal) | thermal level for tail withdrawal after injection (Wistar male rats; 5 mg/kg intraperitoneal, before injection 73+1.26° C.) | increase of pain reception level under thermal stimulation (Wistar male rats; 10 mg/kg body weight intraperitoneal) | pain reception level under thermal stimulation after injection (Wistar male rats; 10 mg/kg body weight intraperitoneal, before injection 73+3.63° C.) | increase of pain reception level (Wistar male rats; 20 mg/kg body weight intraperitoneal) | pain reception level after injection (Wistar male rats; 20 mg/kg body weight intraperitoneal, before injection 73.5±2.07) | analgesic activity (conclusion in words) (Wistar male rats; tail-flick test, 5-20 mg/kg intraperitoneal) | treated women in whom uterine cramps were abrogated [5] |
| --- | --- | --- | --- | --- | --- | --- | --- | --- | --- | --- | --- | --- | --- | --- | --- | --- | --- | --- |
| Br.CCSC(=N)N [S-ethylisothiouronium bromide] | short-duration effect accompanied with side effects such as digestive disturbances and complications | effective in reducing the abnormal uterine hemorrhages and pelvic pains | – | – | – | – | – | – | – | – | – | – | – | – | – | – | – | – |
| S-ethylisothiouronium diethylphosphate | – | – | longer bioactivity, higher efficacy, and little or no side-effects | 39.3% | 60.7 % of the cases | fully eradicated in all treated women | 87.8 % of cases | 94.4% | 12.2% | 40 to 58 h | about 21% | 89.01+5.11 °C | about 31% | 96.4+3.98 °C | 59% | 16.8±9.51 °C | potent analgesic agent | about 95% |
